Data published in patent US20150284360A1, “AMIDE DERIVATIVES OF ANILINE-RELATED COMPOUNDS AND COMPOSITIONS THEREOF” (C&C BIOPHARMA, LLC, priority 2014, published 2015).

Assays:
[1] = Solubility of a compound in water; format: physicochemical; settings: compound added until saturated
Experimental: Solubility of a compound was obtained by adding the compound into water of known volume (e.g. 1 mL) until saturated, measuring the amount of the compound added, and obtaining the solubility of the compound in water (mg/mL) (Table 9).

[2] = In vitro conversion of prodrug Lys-CC30.2HCl to parent drug CC30 in rat plasma (HPLC-MS); format: in vitro ADME; settings: rat plasma
Experimental: Lys-CC30.2HCl (2.53 mg) was dissolved in 200 μl of water to obtain an aqueous solution concentration of 12.6 mg/ml. 4 μl of the Lys-CC30.2HCl solution was thoroughly mixed with 100 μl of rat plasma. This mixture was divided into 10 aliquots (10 μl) placed in 1.5 ml tubes. One tube was placed on ice and was used as the 0 time point. The other 9 samples were placed in an incubator at 37° C. At 5, 10, 30, 60, 120, and 240 minutes, a tube was taken out from incubation and placed on ice to stop or slow down the reaction. The samples were diluted with water (50-fold), mixed, and pelleted by centrifugation at 4° C. and 14,000 rpm for 5 min. The supernatant (˜200-300 μl) was used for HPLC-MS analysis. The % conversion was calculated by dividing the peak area of the parent drug by the peak area of the prodrug at time 0, and then multiplying by 100 (Table 10).
After 60 minutes of incubation, almost half (44.7%) of the Lys-CC30.2HCl prodrug converted to CC30 (Table 10).

[3] = In vivo conversion of prodrug Lys-CC30.2HCl to parent drug CC30 in a rat after intravenous administration (plasma, HPLC-MS); design: species or system Sprague-Dawley rat; settings: for HPLC-MS Peak Area of Prodrug, Lys-CC30•2HCl in the rat: rat plasma, Lys-CC30.2HCl 2 mg/kg intravenous
Experimental: A Male Sprague-Dawley rat weighing 200-220 g was used to study the pharmacokinetics of the prodrug Lys-CC30.2HCl. Food was prohibited for 12 hours before the experiment, but water was freely available. Blood samples (0.2 ml) were collected through orbital venous plexus blood into heparinized 1.5 ml polyethene tubes at 0, 2, 5, 10, 15, 20, 30, 45 and 60 minute time points after the intravenous administration of Lys-CC30.2HCl (2 mg/kg). The samples were immediately centrifuged at 3000 g for 10 minutes. The plasma obtained (100 μl) was stored at −20° C. until analyzed. Plasma Lys-CC30.2HCl and parent drug CC30 concentrations in the collected blood samples were analyzed by HPLC-MS.
The parent drug was detected in the rat for at least 60 minutes, whereas the prodrug was no longer detected after 20 minutes (Table 11)(FIG. 10B).

[4] = Cyclization in simulated gastric fluid (SGF), acidic condition; format: physicochemical; settings: SGF pH=1.3 with pepsin, 37° C., 4 hours
Experimental: Simulated gastric fluid (SGF) was prepared by thoroughly mixing diluted hydrochloric acid (16.4 ml), water (800 ml), and 10 g of pepsin together, and then bring the volume up to 1000 ml with water (pH=1.3). Diluted hydrochloric acid was prepared by mixing 234 ml of concentrated hydrochloric acid with water to a final volume of 1000 ml. Lys-CC30.2HCl (2.53 mg) or CC30 were separately dissolved in 200 μl of water to obtain an aqueous solution concentration of 12.6 mg/ml. 4 μl of the Lys-CC30.2HCl solution and the CC30 solution were thoroughly mixed with 1 ml of SGF in separate tubes. The mixtures were placed in an incubator at 37° C. for 4 hours. The samples were diluted with water 50-fold, mixed, and pelleted by centrifugation at 4° C. and 14,000 rpm for 5 min. The supernatants (˜200-300 μl) were used for HPLC-MS analysis.

For `Cl.Cl.NCCCC[C@H](N)C(=O)Nc1ccccc1NC(=O)CCCCCC(=O)Nc1cccc(Br)c1` [Lys-CC30•2HCl], the “Solubility in Water” value [1] was 750 mg/mL, the “% Conversion of prodrug to CC30” value ([2]; 37° C., 5 min) was 14.2% and the “HPLC-MS Peak Area of Prodrug, Lys-CC30•2HCl” value ([2]; 37° C., 5 min) was 5900784. The “% Conversion of prodrug to CC30” value ([2]; 37° C., 10 min) was 18.3%, the “HPLC-MS Peak Area of Prodrug, Lys-CC30•2HCl” value ([2]; 37° C., 10 min) was 5623041 and the “% Conversion of prodrug to CC30” value ([2]; 37° C., 30 min) was 33.0%. For the same compound, the “HPLC-MS Peak Area of Prodrug, Lys-CC30•2HCl” value ([2]; 37° C., 30 min) was 5199304, the “% Conversion of prodrug to CC30” value ([2]; 37° C., 60 min) was 44.7% and the “HPLC-MS Peak Area of Prodrug, Lys-CC30•2HCl” value ([2]; 37° C., 60 min) was 3678701. For the same compound, the “% Conversion of prodrug to CC30” value ([2]; 37° C., 60 min, listed as Lys-CC30.2HCl) was 44.7%, the “% Conversion of prodrug to CC30” value ([2]; 37° C., 120 min) was 69.2% and the “HPLC-MS Peak Area of Prodrug, Lys-CC30•2HCl” value ([2]; 37° C., 120 min) was 921181. For the same compound, the “% Conversion of prodrug to CC30” value ([2]; 37° C., 240 min) was 71.8%, the “HPLC-MS Peak Area of Prodrug, Lys-CC30•2HCl” value ([2]; 37° C., 240 min) was 498331 and the “HPLC-MS Peak Area of Prodrug, Lys-CC30•2HCl” value ([2]; 37° C., time 0 min (on ice)) was 6182672. For the same compound, the “% Conversion of prodrug to CC30” value ([2]; time 0 min, parent peak area / prodrug peak area at time 0 x 100) was 10.0%, the “Time after which the prodrug was no longer detected in the rat” value ([3]; after Lys-CC30.2HCl 2 mg/kg intravenous) was 20 min and the “Conversion in the rat to the parent drug CC30 (in words)” value ([3]; after injection of Lys-CC30.2HCl 2 mg/kg intravenous, time zero) was “immediately started converting”. The “HPLC-MS Peak Area of Prodrug, Lys-CC30•2HCl in the rat” value (from here on “HPLC-MS Peak Area … in the rat”) ([3]; 0 min) was 5199661, the “HPLC-MS Peak Area … in the rat” value ([3]; 2 min) was 2388965 and the “HPLC-MS Peak Area … in the rat” value ([3]; 5 min) was 838012. For the same compound, the “HPLC-MS Peak Area … in the rat” value ([3]; 10 min) was 173555, the “HPLC-MS Peak Area … in the rat” value ([3]; 15 min) was 40200 and the “HPLC-MS Peak Area … in the rat” value ([3]; 20 min) was 8674. The “Formation of cyclized product (in words)” value [4] was “No similarly cyclized product was formed”.
